Here are results for 26 compounds from US9200005B2, “Inhibitor compounds of phosphodiesterase type 10A” (AbbVie Deutschland GmbH & Co. KG, priority 2013, dated 2015).

In data set [1] the target is PDE10A (UniProt Q9Y233). Put plainly: Measurement of PDE activity (HTRF cAMP kit, recombinant PDE10A). It counts as biochemical, human, rat and mouse. Conditions: substrate 20 nM, 60 minutes at 29° C. The method, then:
a) Measurement of PDE Activity
The recombinant PDE proteins are used in in vitro enzymatic reaction for measurement of PDE activity. These recombinant proteins, including PDE10A (human, rat and mouse PDE10) and isoforms of PDEs 1, 3, 4, and 5, were purchased from commercial vendor BPS Bioscience. The enzymatic activity of PDEs was determined by cAMP measurement kit from CisBio (IBA) using HTRF technology.
The PDE enzymatic reaction was carried out in assay buffer (20 mM Tris-HCl pH 7.5, 10 mM MgCl2, 0.1% bovine serum albumin) containing enzyme and substrate. […] The substrate cyclic nucleotide (cAMP or cGMP) concentration used in the assay was 20 nM for PDE10, and 100 nM for other PDEs. The inhibitory effect of compound was determined by incubating various concentration of inhibitor in the enzymatic assay. […] Next, the compound at varying concentration was mixed with PDE enzyme. The reaction was initiated by addition of cyclic nucleotide substrate, and incubated for 60 minutes at 29° C. The reaction was stopped by addition of lysis buffer from the assay kit. The cAMP-d2 and anti-cAMP cryptate in the lysis buffer detected the level of cAMP left from the PDE hydrolysis reaction. […] Thus, IC50 value of inhibitor can be obtained by plotting inhibitor concentration against PDE activity at that concentration.

A short description of data set [2]: Determination of the microsomal half-life / microsomal clearance, rat liver microsomes. It counts as in vitro ADME. Conditions: 0.5 μM test substance, 0.25 mg of microsomal protein/mL, NADPH, 37° C. The essentials:
(§1)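 Compound (0.5 μM) was preincubated 5 min at 37 °C with rat or human liver microsomes (0.25 mg protein/mL) in 0.05 M phosphate pH 7.4, and NADPH (1 mg/mL) was then added. Samples taken at 0-30 min and quenched with acetonitrile were analysed by MS/MS. T½ was derived assuming first-order decay, and clearance […] was calculated from T½ and protein content.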

The nature of data set [3]: Determination of the microsomal half-life / microsomal clearance, human liver microsomes. It counts as in vitro ADME. Conditions: 0.5 μM test substance, 0.25 mg of microsomal protein/mL, NADPH, 37° C. The essentials: as §1

Counter-ions that a name gives are not always drawn. Some results are limits rather than exact numbers.

With `O=c1c2c(-c3ccncc3)csc2c(-c2ccncc2)nn1CC(F)(F)F` [Example 131, 3,7-di(pyridin-4-yl)-5-(2,2,2-trifluoroethyl)thieno[2,3-d]pyridazin-4(5H)-one], in data set [1], the IC50 was < 100 nM. Moreover, in data set [2], the “Rat mCl” value is listed as “++ (++: <100 μl min^−1 mg^−1)”. Moreover, the “Human mCl” value in data set [3] is reported as “++ (++: <100 μl min^−1 mg^−1)”.
For the compound `Cn1nc(OCc2ccc(Cl)cc2)c2scc(-c3ccncc3)c2c1=O` [Example 62, 7-[(4-chlorobenzyl)oxy]-5-methyl-3-(pyridin-4-yl)thieno[2,3-d]pyridazin-4(5H)-one], the half-inhibitory concentration (IC50) in data set [1] lay in the range of 200 to 500 nM. In addition, in data set [2], the “Rat mCl” value is on record as “++ (++: <100 μl min^−1 mg^−1)”. Further, the “Human mCl” value in data set [3] was “++ (++: <100 μl min^−1 mg^−1)”.
As for `CC(C)n1nc(-c2ccncc2)c2scc(-c3ccncc3)c2c1=O` [Example 135, 5-(propan-2-yl)-3,7-di(pyridin-4-yl)thieno[2,3-d]pyridazin-4(5H)-one], the IC50 in data set [1] was 200 to 500 nM. Further, the “Rat mCl” value in data set [2] is recorded as “+ (+: 100-220 μl min^−1 mg^−1)”. The “Human mCl” value in data set [3] was “++ (++: <100 μl min^−1 mg^−1)”.
For `Cc1ncc(-c2csc3c(-c4ccncc4)nn(CC(F)(F)F)c(=O)c23)cn1` [Example 128, 3-(2-methylpyrimidin-5-yl)-7-(pyridin-4-yl)-5-(2,2,2-trifluoroethyl)thieno[2,3-d]pyridazin-4(5H)-one] the same measures were 200 to 500 nM, “++ (++: <100 μl min^−1 mg^−1)” and “++ (++: <100 μl min^−1 mg^−1)”.
For the compound `Cn1nc(-c2ccncc2)c2scc(N3CCOCC3)c2c1=O` [Example 3, 5-methyl-3-(morpholin-4-yl)-7-(pyridin-4-yl)thieno[2,3-d]pyridazin-4(5H)-one], the IC50 in data set [1] lay within 200 to 500 nM. In addition, the “Rat mCl” value in data set [2] was “++ (++: <100 μl min^−1 mg^−1)”. Besides, the “Human mCl” value in data set [3] is reported as “++ (++: <100 μl min^−1 mg^−1)”.
As to `Cn1nc(-c2ccncc2)c2scc(-c3cccnc3)c2c1=O.O=C(O)C(F)(F)F` [Example 14, 5-methyl-3-(pyridin-3-yl)-7-(pyridin-4-yl)thieno[2,3-d]pyridazin-4(5H)-one bis(trifluoroacetate)], in data set [1], the IC50 was in the range of 100 to 200 nM. For the same compound, in data set [2] (bis(trifluoroacetate)), the “Rat mCl” value is listed as “++ (++: <100 μl min^−1 mg^−1)”. Further, the “Human mCl” value in data set [3] is given as “++ (++: <100 μl min^−1 mg^−1)”.
Turning to `Cn1nc(Oc2cccnc2)c2scc(-c3ccncc3)c2c1=O` [Example 82, 5-methyl-3-(pyridin-4-yl)-7-(pyridin-3-yloxy)thieno[2,3-d]pyridazin-4(5H)-one], the half-inhibitory concentration (IC50) in data set [1] lay in the range of 200 to 500 nM. Moreover, the “Rat mCl” value in data set [2] is “++ (++: <100 μl min^−1 mg^−1)”. Besides, the “Human mCl” value in data set [3] is “++ (++: <100 μl min^−1 mg^−1)”.
Regarding `Cn1nc(-c2ccncc2)c2scc(-c3ccncc3)c2c1=O` [Example 130, 5-methyl-3,7-di(pyridin-4-yl)thieno[2,3-d]pyridazin-4(5H)-one], in data set [1], the IC50 lay within 100 to 200 nM. In data set [2], the “Rat mCl” value is given as “++ (++: <100 μl min^−1 mg^−1)”. Also, the “Human mCl” value in data set [3] is reported as “++ (++: <100 μl min^−1 mg^−1)”.
As for `Cn1nc(OCc2coc3ccccc23)c2scc(-c3ccncc3)c2c1=O` [Example 63, 7-(1-benzofuran-3-ylmethoxy)-5-methyl-3-(pyridin-4-yl)thieno[2,3-d]pyridazin-4(5H)-one], the IC50 in data set [1] is 100 to 200 nM. For the same compound, the “Rat mCl” value in data set [2] is “++ (++: <100 μl min^−1 mg^−1)”. Also, the “Human mCl” value in data set [3] is recorded as “++ (++: <100 μl min^−1 mg^−1)”.
With `COc1ccc(Oc2nn(C)c(=O)c3c(-c4ccncc4)csc23)cc1` [Example 86, 7-(4-methoxyphenoxy)-5-methyl-3-(pyridin-4-yl)thieno[2,3-d]pyridazin-4(5H)-one], the concentration for half-maximal inhibition (IC50) in data set [1] was in the range of 200 to 500 nM. Further, the “Rat mCl” value in data set [2] is “+ (+: 100-220 μl min^−1 mg^−1)”. Moreover, the “Human mCl” value in data set [3] is reported as “++ (++: <100 μl min^−1 mg^−1)”.
Consider `Cn1nc(OCc2cccc(C#N)c2)c2scc(-c3ccncc3)c2c1=O.O=C(O)C(F)(F)F` [Example 59, 3-({[5-methyl-4-oxo-3-(pyridin-4-yl)-4,5-dihydrothieno[2,3-d]pyridazin-7-yl]oxy}methyl)benzonitrile trifluoroacetate], for which the concentration for half-maximal inhibition (IC50) in data set [1] is < 100 nM. Further, the “Rat mCl” value in data set [2] is reported as “++ (++: <100 μl min^−1 mg^−1)”. The “Human mCl” value in data set [3] is listed as “++ (++: <100 μl min^−1 mg^−1)”.
`Cn1nc(-c2ccc3ncoc3c2)c2scc(-c3ccncc3)c2c1=O` [Example 97, 7-(1,3-benzoxazol-6-yl)-5-methyl-3-(pyridin-4-yl)thieno[2,3-d]pyridazin-4(5H)-one]: the 50% inhibitory concentration (IC50) in data set [1] is < 100 nM. In addition, in data set [2], the “Rat mCl” value was “++ (++: <100 μl min^−1 mg^−1)”. Also, the “Human mCl” value in data set [3] is listed as “++ (++: <100 μl min^−1 mg^−1)”.
Turning to `COc1ccc(Oc2nn(C)c(=O)c3c(-c4ccncc4)csc23)cc1OC` [Example 91, 7-(3,4-dimethoxyphenoxy)-5-methyl-3-(pyridin-4-yl)thieno[2,3-d]pyridazin-4(5H)-one], the 50% inhibitory concentration (IC50) in data set [1] is < 100 nM. Also, the “Rat mCl” value in data set [2] is given as “++ (++: <100 μl min^−1 mg^−1)”. For the same compound, in data set [3], the “Human mCl” value is recorded as “++ (++: <100 μl min^−1 mg^−1)”.
Take `COc1cncc(Oc2nn(C)c(=O)c3c(-c4ccncc4)csc23)c1.O=C(O)C(F)(F)F.O=C(O)C(F)(F)F` [Example 88, 7-[(5-methoxypyridin-3-yl)oxy]-5-methyl-3-(pyridin-4-yl)thieno[2,3-d]pyridazin-4(5H)-one bis(trifluoroacetate)]: the 50% inhibitory concentration (IC50) in data set [1] was < 100 nM. Also, the “Rat mCl” value in data set [2] was “++ (++: <100 μl min^−1 mg^−1)”. Also, the “Human mCl” value in data set [3] is on record as “++ (++: <100 μl min^−1 mg^−1)”.
In the case of `Cn1nc(-c2cccc(O)c2)c2scc(-c3ccncc3)c2c1=O` [Example 107, 7-(3-hydroxyphenyl)-5-methyl-3-(pyridin-4-yl)thieno[2,3-d]pyridazin-4(5H)-one trifluoroacetate (salt)], the half-maximal inhibitory concentration (IC50) in data set [1] is < 100 nM.
Regarding `Cn1ccnc1COc1nn(C)c(=O)c2c(-c3ccncc3)csc12` [Example 56, 5-methyl-7-[(1-methyl-1H-imidazol-2-yl)methoxy]-3-(pyridin-4-yl)thieno[2,3-d]pyridazin-4(5H)-one], the 50% inhibitory concentration (IC50) in data set [1] lay in the range of 200 to 500 nM.
In the case of `Cn1nc(-c2cccc(OC(F)(F)F)c2)c2scc(-c3ccncc3)c2c1=O` [Example 112, 5-methyl-3-(pyridin-4-yl)-7-[3-(trifluoromethoxy)phenyl]thieno[2,3-d]pyridazin-4(5H)-one trifluoroacetate], the IC50 in data set [1] was in the range of 200 to 500 nM.
On the same count and under the same terms, the same measure for `Cn1nc(-c2ccc(C(F)(F)F)cc2)c2scc(-c3ccncc3)c2c1=O` [Example 117, 5-methyl-3-(pyridin-4-yl)-7-[4-(trifluoromethyl)phenyl]thieno[2,3-d]pyridazin-4(5H)-one trifluoroacetate]: 100 to 200 nM; for `Cc1ccc(-c2nn(C)c(=O)c3c(-c4ccncc4)csc23)cc1` [Example 121, 5-methyl-7-(4-methylphenyl)-3-(pyridin-4-yl)thieno[2,3-d]pyridazin-4(5H)-one trifluoroacetate]: 100 to 200 nM; for `N#CCCn1nc(-c2ccncc2)c2scc(-c3ccncc3)c2c1=O` [Example 140, 3-[4-oxo-3,7-di(pyridin-4-yl)thieno[2,3-d]pyridazin-5(4H)-yl]propanenitrile]: 100 to 200 nM.
The same measure, in the same setting: the same measure for “methyl 3-({[5-methyl-4-oxo-3-(pyridin-4-yl)-4,5-dihydrothieno[2,3-d]pyridazin-7-yl]oxy}methyl)benzoate trifluoroacetate [Example 72]”: < 100 nM; for `Cn1nc(-c2cccc(Cl)c2)c2scc(-c3ccncc3)c2c1=O` [Example 105, 7-(3-chlorophenyl)-5-methyl-3-(pyridin-4-yl)thieno[2,3-d]pyridazin-4(5H)-one trifluoroacetate]: 200 to 500 nM.
On the same count and under the same terms, the same measure for `Cn1nc(OCc2ccc3c(c2)CNC3)c2scc(-c3ccncc3)c2c1=O` [Example 126, 7-(2,3-dihydro-1H-isoindol-5-ylmethoxy)-5-methyl-3-(pyridin-4-yl)thieno[2,3-d]pyridazin-4(5H)-one bis(trifluoroacetate)]: 200 to 500 nM.
For the compound `COc1ccc(-c2nn(C)c(=O)c3c(-c4ccncc4)csc23)cc1OC` [Example 102, 7-(3,4-dimethoxyphenyl)-5-methyl-3-(pyridin-4-yl)thieno[2,3-d]pyridazin-4(5H)-one trifluoroacetate], the IC50 in data set [1] was < 100 nM.
Turning to `Cn1nc(-c2ccc(Cl)cc2)c2scc(-c3ccncc3)c2c1=O` [Example 110, 7-(4-chlorophenyl)-5-methyl-3-(pyridin-4-yl)thieno[2,3-d]pyridazin-4(5H)-one trifluoroacetate], the IC50 in data set [1] lay in the range of 200 to 500 nM.
On the same count and under the same terms, the same measure for `Cc1cnc(Cl)c(Oc2nn(C)c(=O)c3c(-c4ccncc4)csc23)c1` [Example 90, 7-[(2-chloro-5-methylpyridin-3-yl)oxy]-5-methyl-3-(pyridin-4-yl)thieno[2,3-d]pyridazin-4(5H)-one trifluoroacetate]: < 100 nM.
